This is an account of results in patent US12606559B2, “JAK inhibitor compounds, methods for synthesizing same and use thereof” (GALDERMA HOLDING SA, priority 2020, dated 2026).

Data set [1] in a line: Protein binding analysis (RED), human plasma. Particulars: 5 μM, RED 4 h. The format is in vitro ADME. Here is the method:
(§1) The protein binding was assessed in plasma of Human, male balb-c mice, male Wistar Han rat, male Gottingen minipig by rapid equilibrium dialysis (RED) devices. After the plasma and buffer phosphate 50 mM pH7.4 were equilibrated at 37° C., the compound was added to plasma to reach a final concentration of 5 μM. An aliquot of plasma was withdrawn immediately. Equilibration under mild agitation was continued for 4 h. The plasma and buffer were sampled and samples were quenched with 4 volumes of acetonitrile and centrifuged. Supernatant was quantified in HPLC/MS/MS to calculate the recovery and the percentage of compound dissolved in the buffer (unbound) and bound to plasma proteins.

The nature of data set [2]: Protein binding analysis (RED), mouse plasma. The format is in vitro ADME, male balb-c mice. Particulars: 5 μM, RED 4 h. Here is the method:
as §1

Data set [3] can be described thus: Human skin ex vivo: flux through skin and dermis concentration (Franz cells). The format is in vitro ADME. The following applies: PG/H2O cream 1 mg/mL.
Data set [4] is described as follows: Intrinsic clearance in minipig hepatocytes. The format is in vitro ADME, male Göttingen minipig. Particulars: 2.5 μM. Here is the method: (§2) The intrinsic clearance was assessed in cryopreserved Hepatocytes obtained by Human livers donors of mix gender pooled together, male balb-c mouse, male Wistar Han rats and male Göttingen minipig, by looking at the parent compound disappearance. The incubations were performed using a final concentration of viable cells of 1 million/ml (viability above 70%) and test item of 2.5 μM. Incubations were followed up to 2 h. Aliquotes were withdrawn at different time points and reaction quenched with acetonitrile. After centrifugation the supernatant was analyzed by HPLC/MS to quantify the remaining amount of parent in comparison with time 0. The clearance was calculated by fitting the log of the percentage remaining with Graphpad Prism ver.7.

The next data set concerns the target T1, CYP3A4 (Homo sapiens, UniProt P08684).
T1 construct: assessed in Human pooled liver microsomes of mixed gender; from tissue; host or cells: human pooled liver microsomes
Description: CYP3A inhibition in human liver microsomes. The format is in vitro ADME. A general note: Liver microsomes are a subcellular fraction often used to study metabolism.

A short description of data set [5]: Intrinsic clearance in mouse hepatocytes. The format is in vitro ADME, male balb-c mouse. Particulars: 2.5 μM. As for the experimental part: as §2
Another data set deals with T2, CYP2D6 (Homo sapiens, UniProt P10635).
T2 construct: assessed in Human pooled liver microsomes of mixed gender; from tissue; host or cells: human pooled liver microsomes
T2 sequence (P10635 whole entry): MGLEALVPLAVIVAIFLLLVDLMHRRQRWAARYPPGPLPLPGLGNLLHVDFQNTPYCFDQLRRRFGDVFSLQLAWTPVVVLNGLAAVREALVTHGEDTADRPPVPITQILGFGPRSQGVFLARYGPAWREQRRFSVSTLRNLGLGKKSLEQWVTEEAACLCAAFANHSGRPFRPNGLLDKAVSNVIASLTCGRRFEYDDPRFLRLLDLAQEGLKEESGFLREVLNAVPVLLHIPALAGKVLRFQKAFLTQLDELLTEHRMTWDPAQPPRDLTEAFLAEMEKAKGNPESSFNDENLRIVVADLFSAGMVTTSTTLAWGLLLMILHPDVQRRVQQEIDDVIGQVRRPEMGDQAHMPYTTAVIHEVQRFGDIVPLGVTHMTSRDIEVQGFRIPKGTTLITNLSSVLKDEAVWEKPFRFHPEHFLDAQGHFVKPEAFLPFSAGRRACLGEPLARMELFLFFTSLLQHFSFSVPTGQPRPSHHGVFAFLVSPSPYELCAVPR
Description: CYP2D6 inhibition in human liver microsomes. The format is in vitro ADME. The following applies: dextromethorphan. Here is the method:
After 5 min at 37° C. incubations were started with NADPH and prolonged for 10 min. The test compound was tested up to 30 μM keeping the final concentration of organic solvent was below 0.5%. The final concentration of microsomes was 0.1 mg/ml to ensure linearity during the time of the incubation. The reaction was quenched by adding 3 volume of acetonitrile. After centrifugation the supernatant was analyzed by HPLC/MS/MS for the formation of des-methyldextromethorphane selectively produced by CYP2D6 and 1′hydroxymidazolam or 6β-hydroxytestosterone, selectively produced by CYP3A. IC50 was calculated with Graphpad Prism v.7 comparing the amount of metabolite produced in presence of the test compound with that produced in absence of test item.

Another data set deals with T3, Recombinant JAK1 (Homo sapiens, UniProt P23458).
T3 construct: purchased Life Technologies PV4775
T3 sequence (P23458 whole entry): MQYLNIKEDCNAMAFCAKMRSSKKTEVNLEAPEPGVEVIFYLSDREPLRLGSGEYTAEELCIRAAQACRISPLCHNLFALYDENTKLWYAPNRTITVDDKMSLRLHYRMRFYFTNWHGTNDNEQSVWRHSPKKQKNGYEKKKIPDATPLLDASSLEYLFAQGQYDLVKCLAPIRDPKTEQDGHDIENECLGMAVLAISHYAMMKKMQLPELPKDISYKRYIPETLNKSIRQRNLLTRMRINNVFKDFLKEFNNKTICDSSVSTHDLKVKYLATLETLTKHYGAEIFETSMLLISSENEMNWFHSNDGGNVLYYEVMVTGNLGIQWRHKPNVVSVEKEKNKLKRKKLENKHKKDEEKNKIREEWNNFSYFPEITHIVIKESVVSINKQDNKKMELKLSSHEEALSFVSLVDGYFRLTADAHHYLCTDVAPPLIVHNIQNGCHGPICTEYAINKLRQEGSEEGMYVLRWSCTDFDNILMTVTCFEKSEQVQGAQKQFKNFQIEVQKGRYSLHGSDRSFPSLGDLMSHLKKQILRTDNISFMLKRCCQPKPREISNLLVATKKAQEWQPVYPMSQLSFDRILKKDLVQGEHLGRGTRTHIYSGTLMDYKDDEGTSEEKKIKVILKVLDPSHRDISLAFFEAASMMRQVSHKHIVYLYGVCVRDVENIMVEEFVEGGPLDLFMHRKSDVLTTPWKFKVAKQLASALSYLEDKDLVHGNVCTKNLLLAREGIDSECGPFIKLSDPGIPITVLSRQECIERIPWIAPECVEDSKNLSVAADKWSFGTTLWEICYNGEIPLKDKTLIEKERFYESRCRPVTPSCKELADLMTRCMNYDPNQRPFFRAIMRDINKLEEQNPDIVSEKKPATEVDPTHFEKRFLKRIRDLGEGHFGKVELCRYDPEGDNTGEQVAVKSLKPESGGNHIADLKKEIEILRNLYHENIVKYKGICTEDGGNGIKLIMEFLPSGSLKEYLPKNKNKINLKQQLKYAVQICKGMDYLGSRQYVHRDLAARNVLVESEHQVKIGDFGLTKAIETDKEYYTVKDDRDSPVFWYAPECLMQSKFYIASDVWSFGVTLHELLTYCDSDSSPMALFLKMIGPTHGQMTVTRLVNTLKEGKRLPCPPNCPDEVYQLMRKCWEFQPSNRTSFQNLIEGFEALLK
Description: In vitro enzyme assay (Cisbio kinase assay), JAK1. The following applies: ATP 300 μM; read-out: Enzymatic assay: IC50 JAK1. The format is biochemical.

The target in data set [6] is T4, hERG (Human Ether-a-go-go Related Gene) channel in CHO-K1 cells (Homo sapiens, UniProt Q12809).
T4 construct: expressed in transfected cells; host or cells: CHO-K1
T4 sequence (Q12809 whole entry): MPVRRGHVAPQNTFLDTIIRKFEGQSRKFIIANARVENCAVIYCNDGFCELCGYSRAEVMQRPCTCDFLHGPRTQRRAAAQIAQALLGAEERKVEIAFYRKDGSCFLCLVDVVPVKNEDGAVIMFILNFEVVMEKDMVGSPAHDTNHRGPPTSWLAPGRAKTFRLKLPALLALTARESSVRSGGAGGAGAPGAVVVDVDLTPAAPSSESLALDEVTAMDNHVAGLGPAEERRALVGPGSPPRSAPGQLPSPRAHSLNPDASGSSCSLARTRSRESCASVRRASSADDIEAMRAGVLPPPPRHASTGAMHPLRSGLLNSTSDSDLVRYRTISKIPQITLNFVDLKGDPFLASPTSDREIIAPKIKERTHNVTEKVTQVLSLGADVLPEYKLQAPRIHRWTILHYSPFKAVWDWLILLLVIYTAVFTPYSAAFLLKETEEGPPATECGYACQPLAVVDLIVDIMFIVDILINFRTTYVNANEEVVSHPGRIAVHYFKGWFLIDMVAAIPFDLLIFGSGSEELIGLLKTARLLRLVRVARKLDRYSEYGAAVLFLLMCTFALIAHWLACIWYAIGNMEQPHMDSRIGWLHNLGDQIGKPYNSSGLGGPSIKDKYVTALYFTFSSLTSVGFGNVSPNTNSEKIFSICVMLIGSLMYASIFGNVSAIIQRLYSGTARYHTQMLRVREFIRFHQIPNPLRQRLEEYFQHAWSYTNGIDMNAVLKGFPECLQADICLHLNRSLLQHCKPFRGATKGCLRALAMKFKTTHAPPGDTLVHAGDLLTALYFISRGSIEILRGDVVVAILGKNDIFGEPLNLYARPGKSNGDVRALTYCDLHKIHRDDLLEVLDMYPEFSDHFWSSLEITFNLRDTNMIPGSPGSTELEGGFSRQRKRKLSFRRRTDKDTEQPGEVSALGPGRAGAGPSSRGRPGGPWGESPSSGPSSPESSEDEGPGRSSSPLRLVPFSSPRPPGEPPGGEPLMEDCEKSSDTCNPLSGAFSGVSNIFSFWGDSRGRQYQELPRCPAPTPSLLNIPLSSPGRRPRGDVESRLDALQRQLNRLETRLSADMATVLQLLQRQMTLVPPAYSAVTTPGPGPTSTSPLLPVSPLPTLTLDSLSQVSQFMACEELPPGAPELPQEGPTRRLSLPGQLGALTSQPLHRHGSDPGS
The data set is described as follows: In vitro hERG channel, whole cell patch clamp. The format is cell-based. Particulars: up to 30 μM. As for the experimental part: Blockade of the delayed rectifier potassium current (IKr) encoded by hERG gene (human ether a go go-related gene) can lead to QT interval prolongation and is therefore investigated as part of the cardiac risk assessment. This channel is critical for the repolarisation of the cardiac membrane. The effect of the compounds on IKr was assessed by whole cell patch clamp in stably transfected CHO-K1 cells expressing hERG (Human Ether-a-go-go Related Gene) channel following superfusion at different concentrations up to 30 μM.
On the technique in general: hERG is a cardiac potassium channel; its block is linked to QT prolongation.

Data set [7] can be described thus: Protein binding analysis (RED), minipig plasma. Particulars: male, Gottingen, pH 7.4, RED 4 h, read-out: minipig FU. The format is in vitro ADME. As for the experimental part: as §1
The nature of another data set: Chrom logD pH 7.4. The format is physicochemical.
Data set [8] is described as follows: Intrinsic clearance in rat hepatocytes. The format is in vitro ADME, male Wistar Han rats. Particulars: 2.5 μM. Here is the method: as §2
Data set [9] deals with Salmonella typhimurium TA98 and TA100. Description: Mini Ames assay (TA98 and TA100). The format is cell-based. Particulars: for AMES: TA98 and TA100, with and without S9; for increase in the mean number of revertants: TA98 and TA 100 with or without metabolic activation. The text has this: The Ames test in micro-method (in 6-well plates=mini Ames) follows the general principles of the standard Ames's technique. The Ames test used strains of bacteria Salmonella typhimurium that carry mutations in the genes involved in histidine synthesis. These strains are auxotrophic mutants, they require histidine for growth but cannot produce it. The assay was used to observe the ability of the test item to induce reverse mutations allowing the bacteria to grow in a histidine-free medium. The number of bacteria that revert and acquire the wild-type ability to grow in the absence of histidine can be estimated by counting the colonies that develop upon incubation. The use of different strains allows the identification of different mechanisms of gene mutation (TA98 for detection of frameshift mutations and TA100 for detection of base pair substitutions).
In a number of cases, the test item itself is not directly mutagenic but its metabolic derivatives are.
A toxicity assessment was performed on complete nutriment agar plate (with histidine) to define the highest concentration to be used in the genotoxicity assay. Solutions were prepared in 100% DMSO. The first concentration analyzed in the well (6-well plate) was 500 μg per plate followed by 7 serial dilutions (2 times factor of dilution). Each concentration was tested in triplicate on each strain and for each condition of treatment. The viability of the positive and negative controls was analyzed for each strain, in the presence or absence of metabolic activation system, and were compared with historical data to validate the study. If no bacterial toxicity occurred, the highest concentration tested for genotoxicity was […]. If toxicity occurred, a viability above than 70% defined the highest concentration tested.
The genotoxicity assessment was performed on minimal agar plate (without histidine) following the same dilution procedure as for the cytotoxicity assessment. DMSO and phosphate buffer controls were used as negative controls. 2-Nitrofluorene (2NF), 2-Aminoanthracene (2AA) and 4-Nitro-1.2 phenylenediamine (DANB) were selected as positive controls.
Test items, positive and negative controls were incubated with the 2 bacterial strains. After 48 h incubation at 37° C. with and without metabolic activation (S9), the prototrophic mutant colonies that had grown on the plates were counted. The results were expressed as the mean number of revertants for each condition tested (3 replicates each) and for each concentration of the test item and controls. Induction ration, corresponding to the ratio of revertants in presence of test item versus spontaneous revertant, was determined for each concentration.
A general note: In the Ames test, an excess of revertant colonies over the control signals mutagenicity.

Data set [10] can be described thus: Thermodynamic solubility PG_H2O pH 6 2/8. The format is physicochemical. The following applies: PG/H2O 2/8, pH 6.
Setting [11] is: midazolam, read-out: IC50 CYP3A4 mid.
Where [12] appears, read: testosterone, read-out: IC50 CYP3A4 testo.

Structures are written as SMILES. pIC50: −log10 of the molar value. Where “and” joins values, the source holds several entries; their conditions need not be identical. Identical values can stand only once. Like-named read-outs stand apart in the source and are kept apart here.

T1 sequence (P08684 2-503): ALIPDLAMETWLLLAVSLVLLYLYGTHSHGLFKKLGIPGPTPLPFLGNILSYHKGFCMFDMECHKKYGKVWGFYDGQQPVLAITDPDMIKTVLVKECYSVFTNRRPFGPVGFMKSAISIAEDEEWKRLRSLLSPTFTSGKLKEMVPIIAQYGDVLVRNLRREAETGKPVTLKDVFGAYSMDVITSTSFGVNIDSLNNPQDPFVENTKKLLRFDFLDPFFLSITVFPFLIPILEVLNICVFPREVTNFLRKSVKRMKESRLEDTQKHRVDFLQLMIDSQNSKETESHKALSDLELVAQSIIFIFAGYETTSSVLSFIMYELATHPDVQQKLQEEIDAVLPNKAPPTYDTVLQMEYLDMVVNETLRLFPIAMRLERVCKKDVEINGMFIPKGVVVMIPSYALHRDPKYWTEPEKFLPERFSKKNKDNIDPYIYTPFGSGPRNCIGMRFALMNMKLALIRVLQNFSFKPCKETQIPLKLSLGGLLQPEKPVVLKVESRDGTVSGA

One may read the pIC50 as the negative decadic logarithm of the IC50, by convention in mol/L. For orientation: chromatographic logD means a lipophilicity value derived from retention on a column. Lower therefore signals lower lipophilicity. `CC1(C)CCN(C(=O)C[C@H]2C[C@@H](Nc3c(C#N)cnc4[nH]ccc34)C2)CC1` [Compound A, 4-(((cis)-3-(2-(4,4-dimethylpiperidin-1-yl)-2-oxoethyl)cyclobutyl)amino)-1H-pyrrolo[2,3-b]pyridine-5-carbonitrile] had a hFU in [1] of 4.4%. In data set [2], this molecule yielded a mFU of 5.2%. Besides, the dermis concentration in data set [3] came out at 0.25 µM. Further, the “measured flux 6-24 hr” value in [3] stood at 2.5 ng/cm^2/hr. Also, the “Intr. Clear. minipig heps” value in data set [4] is reported as greater than 300 microL/min/10 6 cells. The negative logarithm of the IC50 (pIC50) on CYP3A4 (setting [11]) is 5.44; at CYP3A4 (setting [12]) it was 5.82; on CYP2D6, 4.60; at Recombinant JAK1, 8.52; in data set [6] it was less than 4.52. Besides, the “Intr. Clear. mheps” value in [5] is recorded as 215 microL/min/10 6 cells. Also, the fraction unbound at 4 h, 5 μM in data set [7] was 0.1. For the same molecule, the chromatographic logD in the data set “Chrom logD pH 7.4” was determined as 2.7. Besides, the “Intr. Clear. rheps” value in data set [8] is reported as greater than 152 microL/min/10 6 cells. In addition, in [9], the AMES result is recorded as “Neg/Neg”. For the same molecule, in [9], the “increase in the mean number of revertants” value was “did not induce a biologically significant increase”. Besides, in data set [10], the “Thermodynamic sol PG_H2O pH 6 2/8” value was 454 microM and 0.17 mg/mL.
Molecule `CC1CCN(C(=O)C[C@H]2C[C@@H](Nc3c(C#N)cnc4[nH]ccc34)C2)CC1` [Compound B, 4-(((cis)-3-(2-(4-Methylpiperidin-1-yl)-2-oxoethyl)cyclobutyl)amino)-1H-pyrrolo[2,3-b]pyridine-5-carbonitrile] registered a hFU in data set [1] of 5.6%. This molecule yielded a mFU in data set [2] of 5.1%. Moreover, in [3], the dermis concentration came out at 0.9 µM. In data set [3], the “measured flux 6-24 hr” value is reported as 2.4 ng/cm^2/hr. In addition, the “Intr. Clear. minipig heps” value in [4] amounted to 248 microL/min/10 6 cells. The negative logarithm of the IC50 (pIC50) at CYP3A4 (setting [11]) was 5.03; at CYP3A4 (setting [12]), 5.25; at CYP2D6 it was 4.60; at Recombinant JAK1 it was 8.40; in [6] it was less than 4.52. Besides, the “Intr. Clear. mheps” value in data set [5] was greater than 300 microL/min/10 6 cells. Besides, the fraction unbound at 4 h, 5 μM in data set [7] was 0.083. The chromatographic logD in “Chrom logD pH 7.4” is 2.2. Also, in [8], the “Intr. Clear. rheps” value is listed as 134 microL/min/10 6 cells. Further, the AMES result in data set [9] is “Neg/Neg”. Further, the “increase in the mean number of revertants” value in data set [9] is “did not induce a biologically significant increase”. Besides, in data set [10], the “Thermodynamic sol PG_H2O pH 6 2/8” value is 223 microM and 0.08 mg/mL.
